Measured values: publication PMC8362273 (Molecular cell, 2020)
Entries after “also recorded” stand apart in the source; their conditions may differ. Where two headings read alike, the source gives them in different places.

Tests used:
Gsk(K383A) = assay type: biochemical, E. coli; details: Figure 2F, S4A
Gsk [1] = details: ref Kawasaki et al., 2000, cited from earlier work; for Km: Mori et al., 1995
[2] = molecular target: Gsk (inosine-guanosine kinase) (Escherichia coli, UniProt P0AEW6); assay: Isothermal titration calorimetry; assay type: binding, E. coli
Gsk [3] = assay: Inosine/guanosine kinase; assay type: biochemical, E. coli
Gsk [4] = assay: Inosine kinase; assay type: biochemical, E. coli; details: GuaB-coupled assay (Figure 1C)
GuaB (IMP dehydrogenase) = assay: IMP-dehydrogenase; assay type: biochemical, E. coli; details: ppGpp up to 1 mM (Figure S1B)
[5] = molecular target: PurA (adenylosuccinate synthase) (Escherichia coli, UniProt P0A7D4); assay: ITC of ppGpp with PurA; assay type: binding, E. coli
[6] = test system: Gsk variants R7A, F321A, K383A, S393A, Q396A; details: each of R7A, in vitro (Figure 2G)
crystal structure = molecular target: the molecule itself; assay: crystal structure
SEC-MALS [7] = molecular target: the molecule itself; assay: SEC-MALS
SEC-MALS [8] = molecular target: the molecule itself; assay: SEC-MALS; remark: listed apart in the source
dynamic light scattering = molecular target: the molecule itself; assay: dynamic light scattering

PurA (adenylosuccinate synthase), sequence (P0A7D4 whole entry): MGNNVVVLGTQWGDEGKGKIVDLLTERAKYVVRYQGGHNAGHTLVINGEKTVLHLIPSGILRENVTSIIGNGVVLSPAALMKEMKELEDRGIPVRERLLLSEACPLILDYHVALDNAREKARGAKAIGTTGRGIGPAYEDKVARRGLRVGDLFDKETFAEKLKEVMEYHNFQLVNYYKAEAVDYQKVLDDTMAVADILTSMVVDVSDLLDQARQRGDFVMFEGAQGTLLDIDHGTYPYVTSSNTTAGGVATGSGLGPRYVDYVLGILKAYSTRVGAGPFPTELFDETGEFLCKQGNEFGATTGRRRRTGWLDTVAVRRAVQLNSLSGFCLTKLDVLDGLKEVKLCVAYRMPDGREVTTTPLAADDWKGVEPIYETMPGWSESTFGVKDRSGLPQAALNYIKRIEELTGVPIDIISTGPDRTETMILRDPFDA

Molecule: Nc1nc2c(ncn2[C@@H]2O[C@H](COP(=O)(O)OP(=O)(O)O)[C@@H](O)[C@H]2O)c(=O)[nH]1 [GDP]
- sensitivity of Gsk(K383A) to inhibitor (Gsk(K383A)): completely insensitive
- feedback inhibition of Gsk (Gsk [1]): provides feedback inhibition

Molecule: Nc1nc2c(ncn2[C@@H]2O[C@H](CO)[C@@H](O)[C@H]2O)c(=O)[nH]1 [guanosine]
- gain in binding heat for guanosine when Gsk is bound to ppGpp ([2]; ITC, Gsk saturated with ppGpp vs without): 8.7 kcal/mol
- Km (Gsk [1]; read-out: Km of Gsk for guanosine): 8 µM

Molecule: Nc1nc2c(ncn2[C@@H]2O[C@H](COP(=O)(O)OP(=O)(O)OP(=O)(O)O)[C@@H](OP(=O)(O)OP(=O)(O)O)[C@H]2O)c(=O)[nH]1 [pppGpp, Guanosine pentaphosphate]
- affinity for Gsk ([2]; ITC (Figure S2I, Table S1), compared with ppGpp): much weaker affinity

Molecule: Nc1nc2c(ncn2[C@@H]2O[C@H](COP(=O)(O)OP(=O)(O)O)[C@@H](OP(=O)(O)OP(=O)(O)O)[C@H]2O)c(=O)[nH]1 [ppGpp, Guanosine tetraphosphate]
- Kd [2]: 0.1 µM
- affinity for Gsk relative to that for GDP (fold stronger) ([2]; ITC): about 20 fold
- gain in binding heat of ppGpp when Gsk is bound to guanosine ([2]; ITC, Gsk pre-saturated with guanosine vs without): 10.8 kcal/mol
- type of inhibition with respect to ATP (Gsk [3]; 1 mM inosine, varied ATP-Mg): mixed-type inhibitor
- type of inhibition with respect to inosine (Gsk [3]; Lineweaver-Burk plotting, 5 mM ATP-Mg, varied inosine): counter-competitive, or cooperative, inhibitor
- fold inhibition of Gsk by ppGpp binding (Gsk [3]; guanosine kinase activity, 50 nM Gsk (Figure 3J)): ~ 60 fold
- inhibition of inosine- and guanosine-kinase activities of Gsk (Gsk [3]; in vitro, PK-LDH coupled (Figure S1A)): potently inhibited
- inhibition of inosine-kinase activity compared with GDP (Gsk [4]): stronger inhibitor than GDP
- inhibition of GuaB (GuaB (IMP dehydrogenase)): did not observe substantial inhibition; also recorded: could not reproduce the inhibition
- Kd [5]: 61 µM
- sensitivity of Gsk(K383A) to inhibitor (Gsk(K383A)): completely insensitive
- loss of sensitivity to ppGpp inhibition (fold less sensitive than WT Gsk) [6]: at least 5 fold

Molecule: O=c1[nH]cnc2c1ncn2[C@@H]1O[C@H](CO)[C@@H](O)[C@H]1O [inosine]
- Km (Gsk [1]; read-out: Km of Gsk for inosine): 1500 µM

B1: Gsk, inosine-guanosine kinase (E. coli), crystallisation construct with N-terminal Gly-Ser-His scar (enzyme)
chain: GSHMKFPGKRKSKHYFPVNARDPLLQQFQPENETSAAWVVGIDQTLVDIEAKVDDEFIERYGLSAGHSLVIEDDVAEALYQELKQKNLITHQFAGGTIGNTMHNYSVLADDRSVLLGVMCSNIEIGSYAYRYLCNTSSRTDLNYLQGVDGPIGRCFTLIGESGERTFAISPGHMNQLRAESIPEDVIAGASALVLTSYLVRCKPGEPMPEATMKAIEYAKKYNVPVVLTLGTKFVIAENPQWWQQFLKDHVSILAMNEDEAEALTGESDPLLASDKALDWVDLVLCTAGPIGLYMAGFTEDEAKRKTQHPLLPGAIAEFNQYEFSRAMRHKDCQNPLRVYSHIAPYMGGPEKIMNTNGAGDGALAALLHDITANSYHRSNVPNSSKHKFTWLTYSSLAQVCKYANRVSYQVLNQHSPRLTRGLPEREDSLEESYWDR
- binding result (crystal structure): binds

B2: Gsk, inosine-guanosine kinase (E. coli), wild type, traceless after Sumo release (enzyme, UniProt P0AEW6 1-434, looked up)
chain: MKFPGKRKSKHYFPVNARDPLLQQFQPENETSAAWVVGIDQTLVDIEAKVDDEFIERYGLSAGHSLVIEDDVAEALYQELKQKNLITHQFAGGTIGNTMHNYSVLADDRSVLLGVMCSNIEIGSYAYRYLCNTSSRTDLNYLQGVDGPIGRCFTLIGESGERTFAISPGHMNQLRAESIPEDVIAGASALVLTSYLVRCKPGEPMPEATMKAIEYAKKYNVPVVLTLGTKFVIAENPQWWQQFLKDHVSILAMNEDEAEALTGESDPLLASDKALDWVDLVLCTAGPIGLYMAGFTEDEAKRKTQHPLLPGAIAEFNQYEFSRAMRHKDCQNPLRVYSHIAPYMGGPEKIMNTNGAGDGALAALLHDITANSYHRSNVPNSSKHKFTWLTYSSLAQVCKYANRVSYQVLNQHSPRLTRGLPEREDSLEESYWDR
- stoichiometry N (SEC-MALS [7]): 2
- stoichiometry N (SEC-MALS [8]): 4

B3: Gsk(L308S) (enzyme, E. coli, UniProt P0AEW6 1-434, looked up)
chain: MKFPGKRKSKHYFPVNARDPLLQQFQPENETSAAWVVGIDQTLVDIEAKVDDEFIERYGLSAGHSLVIEDDVAEALYQELKQKNLITHQFAGGTIGNTMHNYSVLADDRSVLLGVMCSNIEIGSYAYRYLCNTSSRTDLNYLQGVDGPIGRCFTLIGESGERTFAISPGHMNQLRAESIPEDVIAGASALVLTSYLVRCKPGEPMPEATMKAIEYAKKYNVPVVLTLGTKFVIAENPQWWQQFLKDHVSILAMNEDEAEALTGESDPLLASDKALDWVDLVLCTAGPIGLYMAGFTEDEAKRKTQHPSLPGAIAEFNQYEFSRAMRHKDCQNPLRVYSHIAPYMGGPEKIMNTNGAGDGALAALLHDITANSYHRSNVPNSSKHKFTWLTYSSLAQVCKYANRVSYQVLNQHSPRLTRGLPEREDSLEESYWDR
- stoichiometry N (dynamic light scattering): 2
